From ChEMBL document CHEMBL3045473, “Affinity of 3-benzylidene- and 3-cinnamylidenemyosmine analogues for Periplaneta americana nicotinic acetylcholine receptors” (J Pestic Sci, 2006) come the findings set out here.

The term pIC50 denotes −log10 of the IC50, conventionally taken in molar units. A higher pIC50 goes with a low IC50. What is called inhibition is the change of the read-out against control, counted positive when it falls. A high value points to strong suppression.

pIC50: −log10 of the molar value. Where only a bound is given, the exact number is not on record here.

In assay [1] the target is T1, Nicotinic acetylcholine receptor alpha8 subunit (Periplaneta americana, UniProt H6TY12).
T1 sequence (H6TY12 whole entry): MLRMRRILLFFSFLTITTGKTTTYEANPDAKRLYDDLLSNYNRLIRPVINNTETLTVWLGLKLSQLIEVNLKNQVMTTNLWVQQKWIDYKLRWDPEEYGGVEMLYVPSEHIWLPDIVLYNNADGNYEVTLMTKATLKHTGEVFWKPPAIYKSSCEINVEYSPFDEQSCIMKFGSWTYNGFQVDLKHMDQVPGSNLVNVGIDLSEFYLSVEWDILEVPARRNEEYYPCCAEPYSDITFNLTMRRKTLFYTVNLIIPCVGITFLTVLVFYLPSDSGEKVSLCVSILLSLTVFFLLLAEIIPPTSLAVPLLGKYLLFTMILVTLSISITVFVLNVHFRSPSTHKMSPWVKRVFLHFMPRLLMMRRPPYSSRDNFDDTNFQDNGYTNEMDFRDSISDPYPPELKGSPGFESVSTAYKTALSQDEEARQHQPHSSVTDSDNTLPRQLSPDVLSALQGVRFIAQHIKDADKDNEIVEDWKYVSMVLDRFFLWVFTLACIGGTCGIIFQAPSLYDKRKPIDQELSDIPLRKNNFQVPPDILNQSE
As to the kind of experiment: Displacement of [3H]epibatidine from nAChR in Periplaneta americana (American cockroach) nerve cords membranes incubated at 24 degC for 2 hr by liquid scintillation counting method. (In general: In a radioligand displacement assay an active substance lowers the binding of a labelled ligand.)

Assay [2] deals with T2, Nicotinic acetylcholine receptor alpha8 subunit (Periplaneta americana) (UniProt H6TY12).
T2 sequence (whole entry): T1 sequence (H6TY12 whole entry)
Briefly: Displacement of [3H]epibatidine from nAChR in Periplaneta americana (American cockroach) nerve cords membranes at 10 uM incubated at 24 degC for 2 hr by liquid scintillation counting method.

In assay [1], `Fc1ccc(/C=C2\CCN=C2c2cccnc2)cc1` showed a pIC50 of less than 5.00. Also, the inhibition in assay [2] came out at 22.3%.

With `Oc1cccc(/C=C2\CCN=C2c2cccnc2)c1`, in assay [1], the pIC50 is less than 5.00. Further, the inhibition in assay [2] is 32.1%.

In assay [1], `c1cncc(C2=NCCC2)c1` [MYOSMINE] showed a pIC50 of less than 5.00. The molecule also yielded an inhibition in assay [2] of 27.3%.

In turn, `COc1ccccc1/C=C1\CCN=C1c1cccnc1` had a negative logarithm of the IC50 (pIC50) in assay [1] of less than 5.00. The molecule further registered an inhibition in assay [2] of 49.5%.

Molecule `C(=C1/CCN=C1c1cccnc1)/c1ccccc1` showed a pIC50 in assay [1] of less than 5.00. In assay [2], this molecule came in with an inhibition of 41.3%.

In assay [1], `COc1cccc(/C=C2\CCN=C2c2cccnc2)c1` showed a pIC50 of less than 5.00. In assay [2], the inhibition was 23.6%.

Consider `Oc1ccccc1/C=C1\CCN=C1c1cccnc1`, for which the pIC50 in assay [1] is 5.16.

For `Clc1ccc(C2=NCCC/C2=C\c2ccccc2)cn1`, in assay [1], the negative logarithm of the IC50 (pIC50) was 7.67.

In turn, `Clc1ccc(/C=C2\CCN=C2c2cccnc2)cc1` gave a pIC50 in assay [1] of less than 5.00. The same molecule returned an inhibition in assay [2] of 21.5%.

In assay [1], `Oc1ccc(/C=C2\CCN=C2c2cccnc2)cc1` had a pIC50 of 6.51.

The molecule `C(=C1/CCCN=C1c1cccnc1)/c1ccccc1` [3-BENZYLIDENEANABASEINE] had a pIC50 in assay [1] of 7.46.

Regarding `CN(C)c1ccc(/C=C2\CCN=C2c2cccnc2)cc1`, the negative-log IC50 (pIC50) in assay [1] is 5.26.

In assay [1], `N#Cc1ccc(/C=C2\CCN=C2c2cccnc2)cc1` showed a negative logarithm of the IC50 (pIC50) of less than 5.00. The same molecule gave an inhibition in assay [2] of 31.4%.

In assay [1], `C(=C\c1ccccc1)/C=C1\CCN=C1c1cccnc1` [3-CINNAMYLIDENEMYOSMINE] showed a pIC50 of 5.45.

`CN(C)c1ccc(/C=C/C=C2\CCN=C2c2cccnc2)cc1` had a negative-log IC50 (pIC50) in assay [1] of 5.68.

As to `COc1ccc(/C=C2\CCN=C2c2cccnc2)c(OC)c1`, the negative logarithm of the IC50 (pIC50) in assay [1] was 5.34.

`COc1ccc(/C=C2\CCN=C2c2cccnc2)cc1` showed a pIC50 in assay [1] of less than 5.00. This molecule showed an inhibition in assay [2] of 31.4%.

Turning to `COc1ccc(/C=C2\CCN=C2c2cccnc2)c(O)c1`, the negative logarithm of the IC50 (pIC50) in assay [1] is 5.41.

As to `Oc1ccc(/C=C2\CCN=C2c2cccnc2)c(O)c1`, in assay [1], the negative-log IC50 (pIC50) is 6.92.
